Results as given in ChEMBL document CHEMBL1143548, “Synthesis and evaluation of potential inhibitors of eIF4E cap binding to 7-methyl GTP” (Bioorg Med Chem Lett, 2005).
pIC50: −log10 of the molar value.

Biological target: Eukaryotic translation initiation factor 4E (Homo sapiens, UniProt P06730)
Assay: Inhibitory concentration against 7-methyl-GTP binding to eukaryotic translation initiation factor 4E

Sequence of Eukaryotic translation initiation factor 4E (P06730 whole entry): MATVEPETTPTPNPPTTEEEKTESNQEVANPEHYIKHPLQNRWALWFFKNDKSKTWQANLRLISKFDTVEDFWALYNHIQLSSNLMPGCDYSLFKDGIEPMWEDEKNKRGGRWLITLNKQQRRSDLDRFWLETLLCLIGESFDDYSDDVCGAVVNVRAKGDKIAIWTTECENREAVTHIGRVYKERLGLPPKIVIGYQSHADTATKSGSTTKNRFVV

| SMILES | pIC50 |
| --- | --- |
| C[n+]1cn([C@@H]2O[C@H](CO)[C@@H](O)[C@H]2O)c2nc(N)nc([S-])c21 | < 3.40 |
| C=CC[n+]1cn([C@@H]2O[C@H](COP(=O)([O-])O)C(O)[C@H]2O)c2nc(N)[nH]c(=O)c21 (single isomer, unassigned) | 3.66 |
| CC[n+]1cn([C@@H]2O[C@H](COP(=O)([O-])O)C(O)[C@H]2O)c2nc(N)[nH]c(=O)c21 (single isomer, unassigned) | 4.00 |
| Nc1nc2c(c(=O)[nH]1)[n+](Cc1ccccc1)cn2[C@@H]1O[C@H](CO[PH](=O)[O-])[C@@H](O)[C@H]1O | 3.70 |
| C[n+]1cn([C@H]2CC(O)[C@@H](COP(=O)(O)OP(=O)([O-])OP(=O)(O)O)O2)c2nc(N)[nH]c(=O)c21 (single isomer, unassigned) | 5.40 |
| Cn1cnc2c(c1=O)[n+](C)cn2[C@@H]1O[C@H](CO)[C@@H](O)[C@H]1O | < 3.40 |

Further lines, results first:

| pIC50 | SMILES |
| --- | --- |
| < 3.40 | CNc1nc2c(ncn2[C@@H]2O[C@H](CO)C(O)[C@H]2O)c(=O)[nH]1 (single isomer, unassigned) |
| < 3.40 | CN(C)c1nc2c(ccn2[C@@H]2O[C@H](CO)C(O)[C@H]2O)c(=O)[nH]1 (single isomer, unassigned) |
| 3.89 | Nc1nc2c(ncn2[C@@H]2O[C@H](CO[PH](=O)O)C(O)[C@H]2O)c(=O)[nH]1 (single isomer, unassigned) |
| < 3.40 | C[n+]1cn([C@@H]2O[C@H](CO)C(O)[C@H]2O)c2nc(N)[nH]c(=O)c21 (single isomer, unassigned) |
| < 3.40 | Cc1ccc(SNc2nc3c(ncn3[C@@H]3O[C@H](CO)C(O)[C@H]3O)c(=O)[nH]2)cc1 (single isomer, unassigned) |
